From patent US9850283B2, “Macrocyclic inhibitors of the PD-1/PD-L1 and CD80(B7-1)/PD-L1 protein/protein interactions” (BRISTOL-MYERS SQUIBB COMPANY, priority 2013, dated 2017)
Like-named read-outs stand apart in the source and are kept apart here. Positions of bridges follow the written chain, without caps; N, C: chain ends. Non-standard residues stand in square brackets, D forms with d. Residues, ends and D or L forms follow the SMILES beside them. ξ: configuration not given here. Phe(4-NH2) = Nc1ccc(C[C@H](N)C(=O)O)cc1; Bta = N[C@@H](Cc1csc2ccccc12)C(=O)O; Hyp = O=C(O)[C@@H]1C[C@@H](O)CN1; NMeF = CN[C@@H](Cc1ccccc1)C(=O)O; NMeNle = CCCC[C@H](NC)C(=O)O; NMeA = CN[C@@H](C)C(=O)O; Orn = NCCC[C@H](N)C(=O)O; Dab = NCC[C@H](N)C(=O)O; Dap = NC[C@H](N)C(=O)O; ξC = NC(CS)C(=O)O; Sar = CNCC(=O)O

What was measured:
Human PD-L1/PD-1 = molecular target: T1, Human PD-L1/PD-1 (Homo sapiens, UniProt Q9NZQ7); test: HTRF PD-1-Ig/PD-L1-His binding assay (human PD-L1)
T1 construct: made in house; host or cells: HEK293T
Method in brief: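 Soluble Fc-fused PD-1 and His-tagged PD-L1 (truncated before the transmembrane region) were combined in dPBS with 0.1% (w/v) BSA and 0.05% (v/v) Tween-20. Binding was read by HTRF using europium cryptate anti-Ig antibody (1 nM final) and APC anti-His antibody (20 nM final).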

[1] = molecular target: T2, LK35.2-hPD-L1 cells / PE-labeled PD-1-Ig (Homo sapiens, UniProt Q9NZQ7); test: LK35.2-hPD-L1 cell binding high-content screening assay; type: cell-based; settings: cluster symbol, read-out: CBA IC50 cluster
T2 construct: expressed in transfected cells; host or cells: LK35.2 mouse B cell line
Method in brief: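 Readout: high-content imaging of PE-PD-1-Ig bound to LK35.2-hPD-L1 cells. Cells plated overnight (RPMI/10% FCS); compound + 1 nM PE-PD-1-Ig, 1 h, 37 °C; 3× dPBS wash before imaging.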

[2] = cluster symbol, read-out: HTRF IC50 cluster
[3] = cell binding assay, cell line not given
[4] = cell line of CBA not given (LK35.2-hPD-L1 or 293T-hPD-L1)

T1 sequence (Q9NZQ7 with tags, fused parts or gaps): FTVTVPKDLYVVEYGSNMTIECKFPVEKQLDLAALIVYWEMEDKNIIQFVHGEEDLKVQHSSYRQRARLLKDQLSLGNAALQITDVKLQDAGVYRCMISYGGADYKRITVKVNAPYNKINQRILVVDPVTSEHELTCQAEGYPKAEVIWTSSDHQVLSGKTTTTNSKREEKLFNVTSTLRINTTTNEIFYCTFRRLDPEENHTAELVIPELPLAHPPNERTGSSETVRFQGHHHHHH
T2 sequence (Q9NZQ7 19-290): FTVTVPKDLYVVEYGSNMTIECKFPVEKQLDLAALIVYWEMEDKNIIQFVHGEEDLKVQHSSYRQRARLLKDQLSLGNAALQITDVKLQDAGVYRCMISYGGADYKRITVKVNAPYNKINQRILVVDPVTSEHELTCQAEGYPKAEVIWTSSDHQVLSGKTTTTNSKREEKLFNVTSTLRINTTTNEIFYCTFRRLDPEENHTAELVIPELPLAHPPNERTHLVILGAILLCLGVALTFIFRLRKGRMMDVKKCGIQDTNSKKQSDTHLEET

SMILES | IC50 (Human PD-L1/PD-1; [2]) [nM] | IC50 [1, 3] [nM] | IC50 [1, 4] [nM] | IC50 (Human PD-L1/PD-1; value given instead of cluster, read-out: HTRF IC50 value) [nM]
CCCC[C@H]1C(=O)N(C)[C@@H](CCCC)C(=O)N[C@@H](CCN)C(=O)N[C@H](C(=O)NCC(N)=O)CSCC(=O)N[C@@H](Cc2ccc(O)cc2)C(=O)N(C)[C@@H](C)C(=O)N[C@@H](CC(N)=O)C(=O)N2CCC[C@H]2C(=O)N[C@@H](CN)C(=O)N[C@@H](CCC(N)=O)C(=O)N2C[C@H](O)C[C@H]2C(=O)N[C@@H](Cc2c[nH]c3ccccc23)C(=O)N[C@@H](CCN)C(=O)N[C@@H](Cc2c[nH]c3ccccc23)C(=O)N1C [Example 5044] ({CH2CO}-Y[NMeA]NP[Dap]Q[Hyp]W[Dab]W[NMeNle][NMeNle][Dab]CG-NH2; thioether N-14) | 0.385 to 6.74 | 0.158 to 4.71 | – | –
CCCC[C@H]1C(=O)N2CCC[C@H]2C(=O)N[C@@H](CC(=O)O)C(=O)N[C@@H](C(C)C)C(=O)N(C)[C@@H](Cc2ccccc2)C(=O)N[C@@H](Cc2ccc(O)cc2)C(=O)N(C)CC(=O)N[C@@H](Cc2c[nH]c3ccccc23)C(=O)N[C@@H](Cc2ccc(O)cc2)C(=O)N[C@@H](CC(C)C)C(=O)N[C@H](C(=O)NCC(N)=O)CSCC(=O)N[C@@H](Cc2ccccc2)C(=O)N(C)[C@@H](Cc2ccccc2)C(=O)N1C [Example 3068] (HELM PEPTIDE1{[O=C(C[*:3])[*:2]].F.[meF].[CCCC[C@@H](C(=O)[*:2])N(C)[*:1]].P.D.V.[meF].Y.[Sar].W.Y.L.C.G.[am]}$PEPTIDE1,PEPTIDE1,1:R3-14:R3$$$V2.0) | > 30.5 | – | > 74.3 | –
CCCC[C@H]1C(=O)N2CCC[C@@H]2C(=O)N[C@@H](CCCNC(=N)N)C(=O)N[C@H](C(=O)NCC(N)=O)CSCC(=O)N[C@@H](Cc2ccccc2)C(=O)N(C)[C@@H](C)C(=O)N[C@@H](CC(N)=O)C(=O)N2CCC[C@H]2C(=O)N[C@@H](Cc2cnc[nH]2)C(=O)N[C@@H](CC(C)C)C(=O)N(C)CC(=O)N[C@@H](Cc2c[nH]c3ccccc23)C(=O)N[C@@H](CO)C(=O)N[C@@H](Cc2c[nH]c3ccccc23)C(=O)N1C [Example 5009] (HELM PEPTIDE1{[O=C(C[*:3])[*:2]].F.[meA].N.P.H.L.[Sar].W.S.W.[CCCC[C@@H](C(=O)[*:2])N(C)[*:1]].[dP].R.C.G.[am]}$PEPTIDE1,PEPTIDE1,1:R3-15:R3$$$V2.0) | – | > 74.3 | – | 30.5
CCCC[C@H]1C(=O)N(C)[C@@H](CCCC)C(=O)N[C@@H](CCCNC(=N)N)C(=O)NC(C(=O)NCC(N)=O)CSCC(=O)N[C@@H](Cc2ccc(O)cc2)C(=O)N(C)[C@@H](C)C(=O)N[C@@H](CC(N)=O)C(=O)N2CCC[C@H]2C(=O)N[C@@H](Cc2cnc[nH]2)C(=O)N[C@@H](CC(N)=O)C(=O)N2C[C@H](O)C[C@H]2C(=O)N[C@@H](Cc2c[nH]c3ccccc23)C(=O)N[C@@H](CO)C(=O)N[C@@H](Cc2csc3ccccc23)C(=O)N1C (stereo partly shown) [Example 9066] ({CH2CO}-Y[NMeA]NPHN[Hyp]WS[Bta][NMeNle][NMeNle]R[ξC]G-NH2; thioether N-14) | 0.385 to 6.74 | 0.158 to 4.71 | – | –
CCCC[C@H]1C(=O)N(C)[C@@H](CCCC)C(=O)N[C@@H](CC(C)C)C(=O)N[C@H](C(=O)NCC(N)=O)CSCC(=O)N[C@@H](Cc2ccc(O)cc2)C(=O)N(C)[C@@H](C)C(=O)N[C@@H](CC(N)=O)C(=O)N2CCC[C@H]2C(=O)NCC(=O)N[C@@H](CCC(N)=O)C(=O)N2C[C@H](O)C[C@H]2C(=O)N[C@@H](Cc2c[nH]c3ccccc23)C(=O)N[C@@H](CO)C(=O)N[C@@H](Cc2c[nH]c3ccccc23)C(=O)N1C [Example 5127] ({CH2CO}-Y[NMeA]NPGQ[Hyp]WSW[NMeNle][NMeNle]LCG-NH2; thioether N-14) | 0.385 to 6.74 | 4.78 to 72.9 | – | –
CCCC[C@H]1C(=O)N[C@@H](Cc2c[nH]c3ccccc23)C(=O)N[C@@H](CCN)C(=O)N[C@@H](Cc2c[nH]c3ccccc23)C(=O)N(C)[C@@H](CCCC)C(=O)N(C)[C@@H](CCCC)C(=O)N[C@@H](CC(C)C)C(=O)N[C@H](C(=O)NCC(N)=O)CSCC(=O)N[C@@H](Cc2ccc(O)cc2)C(=O)N(C)[C@@H](C)C(=O)N[C@@H](CC(N)=O)C(=O)N2CCC[C@H]2C(=O)N[C@@H](CN)C(=O)N[C@@H](CC(C)C)C(=O)N1C [Example 6041] ({CH2CO}-Y[NMeA]NP[Dap]L[NMeNle]W[Dab]W[NMeNle][NMeNle]LCG-NH2; thioether N-14) | 6.76 to 30.3 | 4.78 to 72.9 | – | –
CCCC[C@H]1C(=O)N(C)[C@@H](COc2cccc(C)c2)C(=O)N[C@@H](CCN)C(=O)N[C@H](C(=O)NCC(N)=O)CSCC(=O)N[C@@H](Cc2ccc(O)cc2)C(=O)N(C)[C@@H](C)C(=O)N[C@@H](CC(N)=O)C(=O)N2CCC[C@H]2C(=O)N[C@@H](CN)C(=O)N[C@@H](CCC(=O)O)C(=O)N2C[C@H](O)C[C@H]2C(=O)N[C@@H](Cc2c[nH]c3ccccc23)C(=O)N[C@@H](CO)C(=O)N[C@@H](Cc2c[nH]c3ccccc23)C(=O)N1C [Example 6030] | 0.385 to 6.74 | 4.78 to 72.9 | – | –
CCCC[C@H]1C(=O)N(C)[C@@H](CCCC)C(=O)N[C@@H](C)C(=O)N[C@H](C(=O)NCC(=O)O)CSCC(=O)N[C@@H](Cc2ccc(O)cc2)C(=O)N(C)[C@@H](C)C(=O)N[C@@H](CC(N)=O)C(=O)N2CCC[C@H]2C(=O)N[C@@H](Cc2cnc[nH]2)C(=O)N[C@@H](CC(C)C)C(=O)N[C@@H](CCCN)C(=O)N[C@@H](Cc2c[nH]c3ccccc23)C(=O)N[C@@H](CO)C(=O)N[C@@H](Cc2c[nH]c3ccccc23)C(=O)N1C [Example 1154] | 6.76 to 30.3 | – | > 74.3 | –
CCCC[C@H]1C(=O)N(C)CC(=O)N[C@@H](CC(=O)O)C(=O)N[C@@H](C(C)C)C(=O)N(C)[C@@H](Cc2ccccc2)C(=O)N[C@@H](Cc2ccc(O)cc2)C(=O)N(C)CC(=O)N[C@@H](Cc2c[nH]c3ccccc23)C(=O)N[C@@H](Cc2ccc(O)cc2)C(=O)N[C@@H](CC(C)C)C(=O)N[C@H](C(=O)NCC(N)=O)CSCC(=O)N[C@@H](Cc2ccccc2)C(=O)N1C [Example 3053] (HELM PEPTIDE1{[O=C(C[*:3])[*:2]].F.[CCCC[C@@H](C(=O)[*:2])N(C)[*:1]].[Sar].D.V.[meF].Y.[Sar].W.Y.L.C.G.[am]}$PEPTIDE1,PEPTIDE1,1:R3-13:R3$$$V2.0) | > 30.5 | – | > 74.3 | –
CCCC[C@H]1C(=O)N(C)[C@@H](CCCC)C(=O)N[C@@H](CCCN)C(=O)N[C@H](C(=O)NCC(N)=O)CSCC(=O)N[C@@H](Cc2ccc(O)cc2)C(=O)N2CCC[C@H]2C(=O)N[C@@H](CC(=O)O)C(=O)N2CCC[C@H]2C(=O)N[C@@H](CN)C(=O)N[C@@H](CC(=O)O)C(=O)N2C[C@H](O)C[C@H]2C(=O)N[C@@H](Cc2c[nH]c3ccccc23)C(=O)N[C@@H](CCN)C(=O)N[C@@H](Cc2csc3ccccc23)C(=O)N1C [Example 1181] ({CH2CO}-YPDP[Dap]D[Hyp]W[Dab][Bta][NMeNle][NMeNle][Orn]CG-NH2; thioether N-14) | 6.76 to 30.3 | – | > 74.3 | –
CCCC[C@H]1C(=O)N(C)CC(=O)N[C@@H](CC(=O)O)C(=O)N[C@@H](C(C)C)C(=O)N(C)[C@@H](Cc2ccccc2)C(=O)N[C@@H](Cc2ccc(O)cc2)C(=O)N(C)CC(=O)N[C@@H](Cc2c[nH]c3ccccc23)C(=O)N[C@@H](Cc2ccc(N)cc2)C(=O)N[C@@H](CC(C)C)C(=O)N[C@H](C(=O)NCC(N)=O)CSCC(=O)N[C@@H](Cc2ccccc2)C(=O)N(C)[C@@H](Cc2ccccc2)C(=O)N1C [Example 3140] ({CH2CO}-F[NMeF][NMeNle][Sar]DV[NMeF]Y[Sar]W[Phe(4-NH2)]LCG-NH2; thioether N-13) | 6.76 to 30.3 | – | 4.78 to 72.9 | –
CCCC[C@H]1C(=O)N(C)CC(=O)N[C@@H](CC(=O)O)C(=O)N[C@@H](C(C)C)C(=O)N(C)[C@@H](Cc2ccccc2)C(=O)N[C@@H](Cc2ccc(O)cc2)C(=O)N(C)CC(=O)N[C@@H](Cc2c[nH]c3ccccc23)C(=O)N[C@@H](Cc2ccc(O)cc2)C(=O)N[C@@H](CCN)C(=O)N[C@H](C(=O)NCC(N)=O)CSCC(=O)N[C@@H](Cc2ccccc2)C(=O)N(C)[C@@H](Cc2ccccc2)C(=O)N1C [Example 3162] (HELM PEPTIDE1{[O=C(C[*:3])[*:2]].F.[meF].[CCCC[C@@H](C(=O)[*:2])N(C)[*:1]].[Sar].D.V.[meF].Y.[Sar].W.Y.[Dab].C.G.[am]}$PEPTIDE1,PEPTIDE1,1:R3-14:R3$$$V2.0) | 6.76 to 30.3 | – | 4.78 to 72.9 | –
CCCC[C@H]1C(=O)N(C)[C@@H](CCCC)C(=O)N[C@@H](CC(C)C)C(=O)N[C@H](C(=O)NCC(N)=O)CSCC(=O)N[C@@H](Cc2ccc(O)cc2)C(=O)N(C)[C@@H](C)C(=O)N[C@@H](CCN)C(=O)N2CCC[C@H]2C(=O)N[C@@H](Cc2c[nH]cn2)C(=O)N[C@@H](CCC(=O)O)C(=O)N2C[C@H](O)C[C@H]2C(=O)N[C@@H](Cc2c[nH]c3ccccc23)C(=O)N[C@@H](CCN)C(=O)N[C@@H](Cc2c[nH]c3ccccc23)C(=O)N1C [Example 5090] ({CH2CO}-Y[NMeA][Dab]PHE[Hyp]W[Dab]W[NMeNle][NMeNle]LCG-NH2; thioether N-14) | 0.385 to 6.74 | 4.78 to 72.9 | – | –
CCCC[C@H]1C(=O)N(C)[C@@H](CCCC)C(=O)N[C@@H](CCCNC(=N)N)C(=O)N[C@H](C(=O)NCC(N)=O)CSCC(=O)N[C@@H](Cc2ccccc2)C(=O)N(C)[C@@H](C)C(=O)N[C@@H]([C@@H](C)O)C(=O)N2CCC[C@H]2C(=O)N[C@@H](Cc2cnc[nH]2)C(=O)N[C@@H](CC(C)C)C(=O)N(C)CC(=O)N[C@@H](Cc2c[nH]c3ccccc23)C(=O)N[C@@H](CO)C(=O)N[C@@H](Cc2c[nH]c3ccccc23)C(=O)N1C [Example 5020] ({CH2CO}-F[NMeA]TPHL[Sar]WSW[NMeNle][NMeNle]RCG-NH2; thioether N-14) | > 30.5 | > 74.3 | – | –
